Patent publication US12427200B2 (priority 2019, dated 2025)
“And” between values parts separate entries of the source, which are not always exact repeats. Identical values can stand only once.

Key:
[1] = tested on: H3N2 E119V (A/Texas/12/2007); format: cell-based, Influenza A virus
[2] = tested on: H1N1 H275Y (A/Texas/23/2012); format: cell-based, Influenza A virus
[3] = tested on: NA variants H275Y (H1N1), E119V and R292K (H3N2), R152K (B); test: biochemical; format: biochemical, Influenza virus
[4] = tested on: A/Perth/261/2009 (H1N1) H275Y; design: species or system BALB/c mice; settings: mouse, in vivo
[5] = tested on: A/Perth/261/2009 (H1N1), H275Y mutation; settings: mouse, in vivo
[6] = tested on: A/Texas/23/2012 (H1N1) H275Y; design: species or system BALB/c mice; settings: mouse, in vivo
[7] = biological target: neuraminidase of live influenza A (H3N2) viruses (Influenza A virus, UniProt D1FVK3, I119V); test: biochemical
[8] = biological target: NA variants H275Y (H1N1), E119V and R292K (H3N2), R152K (B) (Influenza A virus (H3N2), UniProt D1FVK3, I119V); test: biochemical; format: biochemical

SMILES	EC50 [1] [nM]	EC50 [2] [nM]	Loss in potency against variants (up to) [3] [fold]	Survival [4]	Percent Body Weight (grams) ([4]; po)	% Survival [5] [%]	Percent Body Weight (grams) [6]	Protection from lethal challenge [6]	Median Survival [5]	IC50 [7] [nM]	IC50 [8] [nM]
CCOC(=O)C1=C[C@@H](OC(CC)CC)[C@H](NC(C)=O)[C@@H](N)C1 [Oseltamivir, oseltamivir]	> 100	> 100	> 100	no survivors	89% and 84% and 82% and 74% and 100% and 102% and 99%	20	84% and 78% and 100% and 97% and 92%	failed to protect	–	–	–
CCOC(=O)C1=C[C@@H](OC(CC)CC)[C@H](NC(C)=O)[C@@H](N)C1 [Oseltamivir phosphate]	–	–	–	–	–	–	–	–	7	–	–
CC(=O)N[C@H]1[C@H]([C@H](O)[C@H](O)CO)OC(C(=O)O)=C[C@@H]1N=C(N)N [Zanamivir, zanamivir]	74	93.8	> 10	–	–	–	–	–	–	3.08	3.8
